In patent publication US10968215B2 (SHANGHAI HAIHE PHARMACEUTICAL CO., LTD., priority 2016, dated 2021):
Read-outs that look alike come from different tables or passages of the source.

Target: PRC2 complex (EZH2 Y641F/EED/SUZ12/RbAp48/AEBP2) (Homo sapiens (Human), UniProt Q15910, Y641F)
Assay: Activity of a compound to PRC2 complex (EZH2 Y641F), HTRF
[1] = read-out: IC50 (EZH2_Y641F), EZH2 Y641F PRC2 complex, HTRF, class symbols

PRC2 complex (EZH2 Y641F/EED/SUZ12/RbAp48/AEBP2), sequence (Q15910 whole entry Y641F): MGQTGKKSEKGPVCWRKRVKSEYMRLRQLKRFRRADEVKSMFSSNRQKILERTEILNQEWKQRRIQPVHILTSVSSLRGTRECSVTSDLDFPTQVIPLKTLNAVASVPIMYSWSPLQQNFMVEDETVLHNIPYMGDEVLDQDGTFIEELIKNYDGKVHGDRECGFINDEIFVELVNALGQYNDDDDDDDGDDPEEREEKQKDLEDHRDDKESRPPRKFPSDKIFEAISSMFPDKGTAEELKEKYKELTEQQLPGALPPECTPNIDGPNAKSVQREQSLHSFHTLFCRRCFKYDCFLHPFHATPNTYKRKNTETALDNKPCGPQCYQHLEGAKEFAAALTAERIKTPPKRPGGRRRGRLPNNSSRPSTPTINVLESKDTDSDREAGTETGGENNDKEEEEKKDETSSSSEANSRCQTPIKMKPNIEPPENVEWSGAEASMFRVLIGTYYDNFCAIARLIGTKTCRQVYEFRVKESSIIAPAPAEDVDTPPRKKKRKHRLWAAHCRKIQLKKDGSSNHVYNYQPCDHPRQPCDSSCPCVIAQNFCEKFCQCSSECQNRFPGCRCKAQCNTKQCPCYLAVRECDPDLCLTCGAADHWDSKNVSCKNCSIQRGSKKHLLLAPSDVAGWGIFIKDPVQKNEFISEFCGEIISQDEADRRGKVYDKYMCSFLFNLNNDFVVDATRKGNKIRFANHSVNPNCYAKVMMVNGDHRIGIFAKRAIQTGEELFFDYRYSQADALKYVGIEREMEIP
PRC2 complex (EZH2 Y641F/EED/SUZ12/RbAp48/AEBP2), sequence (O75530 whole entry partner): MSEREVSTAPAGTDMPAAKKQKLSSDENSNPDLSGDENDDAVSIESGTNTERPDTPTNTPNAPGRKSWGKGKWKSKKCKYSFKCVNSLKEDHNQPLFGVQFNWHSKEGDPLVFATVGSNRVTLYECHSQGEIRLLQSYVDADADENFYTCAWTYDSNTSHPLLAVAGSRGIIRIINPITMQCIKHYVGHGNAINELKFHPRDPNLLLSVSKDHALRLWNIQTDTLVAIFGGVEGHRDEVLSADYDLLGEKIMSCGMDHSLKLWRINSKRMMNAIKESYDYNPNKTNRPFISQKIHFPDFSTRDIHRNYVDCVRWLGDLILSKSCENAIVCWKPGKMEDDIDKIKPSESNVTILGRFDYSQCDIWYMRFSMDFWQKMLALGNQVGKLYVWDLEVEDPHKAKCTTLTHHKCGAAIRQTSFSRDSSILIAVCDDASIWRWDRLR
PRC2 complex (EZH2 Y641F/EED/SUZ12/RbAp48/AEBP2), sequence (Q15022 whole entry partner): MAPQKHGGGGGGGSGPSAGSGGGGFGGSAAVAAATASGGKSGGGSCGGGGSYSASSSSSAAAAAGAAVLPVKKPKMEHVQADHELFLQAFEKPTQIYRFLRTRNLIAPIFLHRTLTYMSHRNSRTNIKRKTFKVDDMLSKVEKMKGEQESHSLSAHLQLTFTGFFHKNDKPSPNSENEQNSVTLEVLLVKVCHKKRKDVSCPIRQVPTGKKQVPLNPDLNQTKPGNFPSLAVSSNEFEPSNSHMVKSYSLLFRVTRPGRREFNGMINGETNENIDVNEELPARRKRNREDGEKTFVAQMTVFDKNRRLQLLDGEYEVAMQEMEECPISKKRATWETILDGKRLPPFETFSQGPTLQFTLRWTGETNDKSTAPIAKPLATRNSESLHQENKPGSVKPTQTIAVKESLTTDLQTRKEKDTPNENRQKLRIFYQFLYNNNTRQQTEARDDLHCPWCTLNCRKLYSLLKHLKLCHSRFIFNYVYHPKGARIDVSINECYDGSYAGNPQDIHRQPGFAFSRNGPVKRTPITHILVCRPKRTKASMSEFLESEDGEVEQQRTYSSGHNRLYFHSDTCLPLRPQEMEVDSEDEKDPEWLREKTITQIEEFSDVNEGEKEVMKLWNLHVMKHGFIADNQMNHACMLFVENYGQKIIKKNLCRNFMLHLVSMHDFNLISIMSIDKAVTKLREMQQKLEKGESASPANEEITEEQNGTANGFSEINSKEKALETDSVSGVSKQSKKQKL
PRC2 complex (EZH2 Y641F/EED/SUZ12/RbAp48/AEBP2), sequence (Q09028 whole entry partner): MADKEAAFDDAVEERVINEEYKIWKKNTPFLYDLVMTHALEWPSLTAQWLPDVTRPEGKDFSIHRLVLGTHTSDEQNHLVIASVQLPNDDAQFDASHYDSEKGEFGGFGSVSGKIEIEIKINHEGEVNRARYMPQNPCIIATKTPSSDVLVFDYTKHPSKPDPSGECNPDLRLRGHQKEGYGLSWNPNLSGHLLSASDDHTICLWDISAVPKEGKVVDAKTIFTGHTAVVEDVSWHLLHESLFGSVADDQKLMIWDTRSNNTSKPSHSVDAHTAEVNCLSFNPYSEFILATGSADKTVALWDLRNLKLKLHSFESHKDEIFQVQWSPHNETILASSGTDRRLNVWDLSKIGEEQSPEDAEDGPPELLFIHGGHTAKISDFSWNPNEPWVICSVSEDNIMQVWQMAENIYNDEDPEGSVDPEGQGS
PRC2 complex (EZH2 Y641F/EED/SUZ12/RbAp48/AEBP2), sequence (Q6ZN18 whole entry partner): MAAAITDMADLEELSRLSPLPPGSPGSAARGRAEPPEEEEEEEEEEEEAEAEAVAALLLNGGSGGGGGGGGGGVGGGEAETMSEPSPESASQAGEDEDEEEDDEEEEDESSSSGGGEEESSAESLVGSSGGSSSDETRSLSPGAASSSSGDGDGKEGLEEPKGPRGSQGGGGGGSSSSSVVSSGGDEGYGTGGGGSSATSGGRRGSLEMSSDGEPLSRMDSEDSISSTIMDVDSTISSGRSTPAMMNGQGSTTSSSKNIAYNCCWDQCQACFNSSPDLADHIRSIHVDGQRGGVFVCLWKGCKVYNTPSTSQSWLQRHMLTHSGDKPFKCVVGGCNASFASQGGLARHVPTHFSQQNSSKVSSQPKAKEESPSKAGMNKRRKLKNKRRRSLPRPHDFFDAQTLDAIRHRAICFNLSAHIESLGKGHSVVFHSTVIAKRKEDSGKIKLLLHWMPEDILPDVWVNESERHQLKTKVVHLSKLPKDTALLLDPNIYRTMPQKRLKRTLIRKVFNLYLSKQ

Row | IC50 [1] [nM] | IC50 [nM] | SMILES
1 | 100 to 1000 |  | Cc1cc(C)c(CNC(=O)c2cc3cc(-c4cncs4)cn3c(C(C)N3CCN(CC(F)(F)F)CC3)c2C)c(=O)[nH]1 (centres unmarked) [Example 140]
2 | < 100 |  | COc1cc(C)[nH]c(=O)c1CNC(=O)c1cc2c(-c3ccc(N)nc3)ccn2c(C(C)N2CCN(CC(F)(F)F)CC2)c1C (centres unmarked) [Compound 157]
3 |  | < 100 | COc1cc(C)[nH]c(=O)c1CNC(=O)c1cc2c(-c3cnc(C)nc3)ccn2c(C(C)N2CCN(CC(F)(F)F)CC2)c1C (centres unmarked) [Compound 196, N-((4-methoxy-6-methyl-2-oxo-1,2-dihydropyridin-3-yl)methyl)-6-methyl-1-(2-methylpyrimidin-5-yl)-5-(1-(4-(2,2,2-trifluoroethyl)piperazin-1-yl)ethyl)indolizine-7-carboxamide]
4 |  | < 100 | CCCc1cc(C)[nH]c(=O)c1CNC(=O)c1cc2c(-c3ccc(N)nc3)ccn2c(C(C)N2CCN(CC(F)(F)F)CC2)c1C (centres unmarked) [Compound 185, 1-(6-aminopyridin-3-yl)-6-methyl-N-((6-methyl-2-oxo-4-propyl-1,2-dihydropyridine-3-yl)methyl)-5-(1-(4-(2,2,2-trifluoroethyl)piperazin-1-yl)ethyl)indolizine-7-carboxamide]
5 | 100 to 1000 |  | Cc1cc(C)c(CNC(=O)c2cc3cc(Br)cn3c(C(C)N3CCC(C#N)CC3)c2C)c(=O)[nH]1 (centres unmarked) [Example 146, 2-bromo-5-(1-(4-cyanopiperidin-1-yl)ethyl)-N-((4,6-dimethyl-2-oxo-1,2-dihydropyridin-3-yl)methyl)-6-methylindolizine-7-carboxamide]
6 | < 100 |  | COc1cc(C)[nH]c(=O)c1CNC(=O)c1cc2c(-c3ccc(C)nn3)ccn2c(C(C)N2CCN(CC(F)(F)F)CC2)c1C (centres unmarked) [Compound 199, N-((4-methoxy-6-methyl-2-oxo-1,2-dihydropyridin-3-yl)methyl)-6-methyl-1-(6-methylpyridazin-3-yl)-5-(1-(4-(2,2,2-trifluoroethyl)piperazin-1-yl)ethyl)indolizine-7-carboxamide]
7 | < 100 |  | COc1cc(C)[nH]c(=O)c1CNC(=O)c1cc2c(-c3ccc(C)nc3C)ccn2c([C@H](C)N2CCN(CC(F)(F)F)CC2)c1C (single isomer, unassigned) [Compound 177, (S)-1-(2,6-dimethylpyridin-3-yl)-N-((4-methoxy-6-methyl-2-oxo-1,2-dihydropyridine-3-yl)methyl)-6-methyl-5-(1-(4-(2,2,2-trifluoroethyl)piperazin-1-yl)ethyl)indolizine-7-carboxamide or (R) 1-(2,6-dimethylpyridin-3-yl)-N-((4-methoxy-6-methyl-2-oxo-1,2-dihydropyridine-3-yl)methyl)-6-methyl-5-(1-(4-(2,2,2-trifluoroethyl)piperazin-1-yl)ethyl)indolizine-7-carboxamide]
8 | 100 to 1000 |  | Cc1cc(C)c(CNC(=O)c2cc3cc(Br)cn3c(C(C)N3CCC(N4CCCC4)CC3)c2C)c(=O)[nH]1 (centres unmarked) [Example 144, 2-bromo-N-((4,6-dimethyl-2-oxo-1,2-dihydropyridin-3-yl)methyl)-5-(1-(4-hydroxypiperidin-1-yl)ethyl)-6-indolizine-7-carboxamide]
9 |  | < 100 | CCN(c1c(C)c(C(=O)NCc2c(C)cc(C)[nH]c2=O)cc2cc(-c3cn(C)cn3)cn12)C1CCOCC1 [Example 73, N-((4,6-dimethyl-2-oxo-1,2-dihydropyridin-3-yl)methyl)-5-(ethyl(tetrahydro-2H-pyran-4-yl)amino)-6-methyl-2-(1-methyl-1H-imidazol-4-yl)indolizin-7-carboxamide]
10 |  | < 100 | COc1cc(C)[nH]c(=O)c1CNC(=O)c1cc2c(-c3ccnc(N(C)C)c3)ccn2c(C(C)N2CCN(CC(F)(F)F)CC2)c1C (centres unmarked) [Compound 170, 1-(2-(dimethylamino)pyridin-4-yl)-N-((4-methoxy-6-methyl-2-oxo-1,2-dihydropyridin-3-yl)methyl)-6-methyl-5-(1-(4-(2,2,2-trifluoroethyl)piperazin-1-yl)ethyl)indolizine-7-carboxamide]
11 | 100 to 1000 |  | CCN1CCN(C(C)c2c(C)c(C(=O)NCc3c(C)cc(C)[nH]c3=O)cc3cc(Br)cn23)CC1 (centres unmarked) [Example 98, N-((4,6-dimethyl-2-oxo-1,2-dihydropyridin-3-yl)methyl)-6-methyl-5-(1-(4-methylpiperazine)-1-ethyl)-2-bromoindolizine-7-carboxamide]
12 | < 100 |  | COc1cc(C)[nH]c(=O)c1CNC(=O)c1cc2c(-c3cnc(C)nc3)ccn2c([C@H](C)N2CCN(CC(F)(F)F)CC2)c1C (single isomer, unassigned) [Compound 198, (S)—N-((4-methoxy-6-methyl-2-oxo-1,2-dihydropyridin-3-yl)methyl)-6-methyl-1-(2-methylpyrimidin-5-yl)-5-(1-(4-(2,2,2-trifluoroethyl)piperazin-1-yl)ethyl)indolizine-7-formamide or (R)—N-((4-methoxy-6-methyl-2-oxo-1,2-dihydropyridin-3-yl)methyl)-6-methyl-1-(2-methylpyrimidin-5-yl)-5-(1-(4-(2,2,2-trifluoroethyl)piperazin-1-yl)ethyl)indolizine-7-formamide]
13 | < 100 |  | Cc1cc(C)c(CNC(=O)c2cc3cc(-c4ccn(C)n4)cn3c(C(C)N3CCC(N(C)C)CC3)c2C)c(=O)[nH]1 (centres unmarked) [Example 77, N-((4,6-dimethyl-2-oxo-1,2-dihydropyridin-3-yl)methyl)-5-(1-(4-(dimethylamino)piperidine-1-yl)ethyl)-6-methyl-2-(1-methyl-1H-pyrazol-3-yl)indolizin-7-carboxamide]
14 | < 100 |  | COc1cc(C)[nH]c(=O)c1CNC(=O)c1cc2c(-c3ncnn3C)ccn2c(C(C)N2CCN(CC(F)(F)F)CC2)c1C (centres unmarked) [Compound 183, N-((4-methoxy-6-methyl-2-oxo-1,2-dihydropyridin-3-yl)methyl)-6-methyl-1-(1-methyl-1H-1,2,4-triazol-5-yl)-5-(1-(4-(2,2,2-trifluoroethyl)piperazin-1-yl)ethyl)indolizine-7-carboxamide]
15 | < 100 |  | COc1cc(C)[nH]c(=O)c1CNC(=O)c1cc2c(-c3ccc(C)nn3)ccn2c([C@H](C)N2CCN(CC(F)(F)F)CC2)c1C (single isomer, unassigned) [Compound 200, (S)—N-((4-methoxy-6-methyl-2-oxo-1,2-dihydropyridin-3-yl)methyl)-6-methyl-1-(6-methylpyridazin-3-yl)-5-(1-(4-(2,2,2-trifluoroethyl)piperazin-1-yl)ethyl)indolizine-7-formamide or (R)—N-((4-methoxy-6-methyl-2-oxo-1,2-dihydropyridin-3-yl)methyl)-6-methyl-1-(6-methylpyridazin-3-yl)-5-(1-(4-(2,2,2-trifluoroethyl)piperazin-1-yl)ethyl)indolizine-7-formamide]
16 | < 100 |  | COc1c(CNC(=O)c2cc3c(-c4ccc(N)nc4)ccn3c(C(C)N3CCN(CC(F)(F)F)CC3)c2C)c(=O)[nH]n1C (centres unmarked) [Compound 187, 1-(6-aminopyridin-3-yl)-N-((5-methoxy-1-methyl-3-oxo-2,3-dihydro-1H-pyrazole-4-yl)methyl)-6-methyl-5-(1-(4-(2,2,2-trifluoroethyl)piperazin-1-yl)ethyl)indolizine-7-carboxamide]
17 |  | < 100 | Cc1cc(C)c(CNC(=O)c2cc3cc(-c4nccn4C)cn3c(C(C)N3CCOCC3)c2C)c(=O)[nH]1 (centres unmarked) [Example 79, N-((4,6-dimethyl-2-oxo-1,2-dihydropyridin-3-yl)methyl)-6-methyl-2-(1-methyl-1H-imidazole-2-yl)-5-(1-morpholinoethyl)indolizine-7-carboxamide]
18 | < 100 |  | COc1cc(C)[nH]c(=O)c1CNC(=O)c1cc2cc(Cl)cn2c(C(C)N2CCC(N(C)C)CC2)c1C (centres unmarked) [Example 130, 2-chloro-5-(1-(4-(dimethylamino)piperidin-1-yl)ethyl)-N-((4-methoxy-6-methyl-2-oxo-1,2-di hydropyridin-3-yl)methyl)-6-methylindolizine-7-carboxamide]
19 | 100 to 1000 |  | Cc1cc(C)c(CNC(=O)c2cc3cc(-c4ccn(C)n4)cn3c(C(C)N3CCOCC3)c2C)c(=O)[nH]1 (centres unmarked) [Example 85, N-((4,6-dimethyl-2-oxo-1,2-dihydropyridin-3-yl)methyl)-6-methyl-2-(1-methyl-1H-pyrazole-3-yl)-5-(1-morpholinoethyl)indolizine-7-carboxamide]
20 | < 100 |  | COc1cc(C)[nH]c(=O)c1CNC(=O)c1cc2c(-c3ccnc(N(C)C)c3)ccn2c([C@H](C)N2CCN(CC(F)(F)F)CC2)c1C (single isomer, unassigned) [Compound 171, (S)-1-(2-(dimethylamino)pyridin-4-yl)-N-((4-methoxy-6-methyl-2-oxo-1,2-dihydropyridine-3-yl)methyl)-6-methyl-5-(1-(4-(2,2,2-trifluoroethyl)piperazin-1-yl)ethyl)indolizine-7-carboxamide or (R) 1-(2-(dimethylamino)pyridin-4-yl)-N-((4-methoxy-6-methyl-2-oxo-1,2-dihydropyridine-3-yl)methyl)-6-methyl-5-(1-(4-(2,2,2-trifluoroethyl)piperazin-1-yl)ethyl)indolizine-7-carboxamide]

Row | SMILES | IC50 [1] [nM] | IC50 [nM]
21 | Cc1cc(C)c(CNC(=O)c2cc3cc(Cl)cn3c(C(C)N3CCC(N(C)C)CC3)c2C)c(=O)[nH]1 (centres unmarked) [Example 70] | < 100 | 
22 | Cc1cc(C)c(CNC(=O)c2cc3c(-c4cccc(N5CCOCC5)c4)ccn3c(C(C)N3CCOCC3)c2C)c(=O)[nH]1 (centres unmarked) [Example 117, N-((4,6-dimethyl-2-oxo-1,2-dihydropyridin-3-yl)methyl)-6-methyl-5-(1-morpholinylethyl)-1-(3-morpholinylphenyl)indolizine-7-carboxamide] |  | < 100
23 | Cc1cc(C)c(CNC(=O)c2cc3cc(Br)cn3c(C(C)N3CCC(F)(F)CC3)c2C)c(=O)[nH]1 (centres unmarked) [Example 123, 2-bromo-5-(1-(4,4-difluoropiperidin-1-yl)ethyl)-N-((4,6-dimethyl-2-oxo-1,2-dihydropyridin-3-yl)methyl)-6-methylindolizine-7-carboxamide] | 1000 to 10000 | 
